Literature values as cited in patent US20260198548A1, “AEROSOL-GENERATING ARTICLE WITH AN AVERSIVE FLAVOURANT IN A REMOVABLE WRAPPER” (PHILIP MORRIS PRODUCTS S.A., priority 2022, published 2026).
Structures can show the parent of a compound that is named as a salt.

system: test panel members (bitter taste); conditions: reciprocal of the dilution that still has a bitter taste; quinine hydrochloride reference set at 200,000

Compound | Bitterness value
CC1=C[C@H]2[C@H]3[C@H](C(C)=C4[C@H]5OC(=O)[C@@H](C)[C@@H]5CC[C@](C)(O)[C@@H]43)[C@@]13[C@@H]2[C@@](C)(O)CC[C@H]1[C@H](C)C(=O)O[C@@H]13 [Absinthin, absinthin] | 3,000,000
C[C@@]12C[C@@H](c3ccoc3)OC(=O)[C@@H]1CC[C@]1(C)[C@H]2[C@@H]2C=C[C@@]1(O)C(=O)O2 [Columbin, columbin] | 60,000,000
COC1=C[C@@H](C)[C@@H]2C[C@H]3OC(=O)C[C@H]4C(C)=C(OC)C(=O)[C@H]([C@@]2(C)C1=O)[C@@]34C [Quassin, quassin] | 13,000,000
C=C[C@H]1C[N@@]2CC[C@H]1C[C@H]2[C@H](O)c1ccnc2ccc(OC)cc12 [Quinine hydrochloride, quinine hydrochloride] | 200,000
amarogentin | 58,000,000
